Patent USRE38257E1, “Piperdine derivatives and hypotensives containing the same” (Ajinomoto Co., Inc., priority 1988, dated 2003)
Structures can show the parent of a compound that is named as a salt.

Tested on: male spontaneously hypertensive rats
Assay: Decrease in systolic blood pressure in spontaneously hypertensive rats after intravenous bolus injection, indirect (tail-cuff) method
Type: in vivo, rat
Details: for Decrease in systolic blood pressure (mmHg) time after administration (hour) 0.5: 0.5 hour after administration; for Decrease in systolic blood pressure (mmHg) time after administration (hour) 4: 4 hours after administration
Description: As test animals, four male spontaneously hypertensive rats (weight 400 to 440 g) that were sufficiently adapted for feeding and in which hypertension was confirmed were used.
Physiological saline aqueous solution containing 2.5% Nicolle and 2.5% ethanol of sample was intravenously administered by bolus injection at a dose of 1 ml per 1 kg of body weight. Systolic blood pressure after administration was measured by the indirect (tail-cuff) method.

| Compound | Decrease in systolic blood pressure (mmHg) time after administration (hour) 0.5 (dose 10 mg/kg i.v. bolus) [mmHg] | Decrease in systolic blood pressure (mmHg) time after administration (hour) 4 (dose 10 mg/kg i.v. bolus) [mmHg] | also measured |
| --- | --- | --- | --- |
| COc1ccc(CCCN2CCC(=C3c4ccccc4C=Cc4ccccc43)CC2)cc1OC.Cl [Example 201, 4-(5H-Dibenzo[a,d]cyclohepten-5-ylidene)-1-(-3-(3′,4′-dimethoxyphenyl)propyl)piperidine hydrochloride] | −118 | −21 |  |
| COc1ccc(CCC(=O)N2CCC(=C3c4ccccc4C=Cc4ccccc43)CC2)cc1OC [Example 202, 4-(5H-Dibenzo[a,d]cyclohepten-5-ylidene)-1-(3-(3′,4′-dimethoxyphenyl)propanoyl)piperidine] | −54 | −16 |  |
| Cl.O=C(CCCN1CCC(=C2c3ccccc3C=Cc3ccccc32)CC1)N1CCCCC1 [Example 203, 1-(4-(4-(5H-Dibenzo[a,d]cyclohepten-5-ylidene)-1-piperidinyl)butanoyl)piperidine hydrochloride] |  |  | Decrease in systolic blood pressure (mmHg) time after administration (hour) 0.5 (dose 3 mg/kg i.v. bolus): −123 mmHg; Decrease in systolic blood pressure (mmHg) time after administration (hour) 4 (dose 3 mg/kg i.v. bolus): −58 mmHg |
| Cl.O=C(CCCN1CCC(=C2c3ccccc3C=Cc3ccccc32)CC1)N1CCc2ccccc2C1 [Example 204, N-(4-(4-(5H-Dibenzo[a,d]cyclohepten-5-ylidene)-1-piperidinyl)butanoyl)-1,2,3,4-tetrahydroisoquinoline hydrochloride] | −141 | −84 |  |
| COc1ccc(C(O)CCCN2CCC(=C3c4ccccc4C=Cc4ccccc43)CC2)cc1OC.Cl (centres unmarked) [Example 205, 4-(4-(5H-Dibenzo[a,d]cyclohepten-5-ylidene)-1-piperidinyl)-1-(3,4-dimethoxy)phenyl-1-hydroxybutane hydrochloride] | −22 | −4 |  |
| CCCCC(O)(CCCN1CCC(=C2c3ccccc3C=Cc3ccccc32)CC1)c1ccc(OC)c(OC)c1.Cl (centres unmarked) [Example 207, 1-butyl-4-(4-(5H-dibenzo[a,d]cyclohepten-5-ylidene)-1-piperidinyl)-1-(3,4-dimethoxy)phenyl-1-hydroxybutane hydroxybutane hydrochloride] | −98 | −43 |  |
| C1=Cc2ccccc2C(=C2CCN(CCCCN3CCCCC3)CC2)c2ccccc21 [Example 209, 1-(4-(4-(5H-Dibenzo[a,d]cyclohepten-5-ylidene)-1-piperidinyl)butyl)piperidine dihydroxybutane hydrochloride] | −49 | −13 |  |
| C1=Cc2ccccc2C(=C2CCN(Cc3ccc4ccccc4c3)CC2)c2ccccc21.Cl [Example 212, 4-(5H-Dibenzo[a,d]cyclohepten-5-ylidene)-1-(2-naphthylmethyl)piperidine hydrochloride] | −155 |  |  |
| O=C(c1cccc2ccccc12)N1CCC(=C2c3ccccc3C=Cc3ccccc32)CC1 [Example 213, 4-(5H-Dibenzo[a,d]cyclohepten-5-ylidene)-1-(1-naphthoyl)piperidine] | −82 | 3 |  |
| C1=Cc2ccccc2C(=C2CCN(Cc3cccc4ccccc34)CC2)c2ccccc21.Cl [Example 214, 4-(5H-Dibenzo[a,d]cyclohepten-5-ylidene)-1-(1-naphthylmethyl)piperidine hydrochloride] | −126 | −21 |  |
| Cl.O=C1CCCCC1CCCCN1CCC(=C2c3ccccc3C=Cc3ccccc32)CC1 (centres unmarked) [Example 215, 2-(4-(4-(5H-Dibenzo[a,d]cyclohepten-5-ylidene)-1-piperidinyl)butyl)cyclohexanone hydrochloride] | −128 | −14 |  |
| Cl.O=C(CCCN1CCC(=C2c3ccccc3C=Cc3ccccc32)CC1)N1CCC(O)CC1 [Example 216, 1-(4-(4-(5H-Dibenzo[a,d]cyclohepten-5-ylidene)-1-piperidinyl)butanoyl)-4-hydroxypiperidine hydrochloride] |  |  | Decrease in systolic blood pressure (mmHg) time after administration (hour) 0.5 (dose 3 mg/kg i.v. bolus): −2 mmHg; Decrease in systolic blood pressure (mmHg) time after administration (hour) 4 (dose 3 mg/kg i.v. bolus): −27 mmHg |
| CCOC(=O)C1CCN(C(=O)CCCN2CCC(=C3c4ccccc4C=Cc4ccccc43)CC2)CC1.Cl [Example 217, 1-(4-(4-(5H-Dibenzo[a,d]cyclohepten-5-ylidene)-1-piperidinyl)butanoyl)-4-ethoxyxarbonpiperidine hydrochloride] | −18 | −20 |  |
| C1=Cc2ccccc2C(=C2CCN(CCCOC3CCCCC3)CC2)c2ccccc21.Cl [Example 218, Cyclohexyl 3-(4-(5H-Dibenzo[a,d]cyclohpetan-5-ylidene)-1-piperidinyl)propylether hydrochloride] | −97 | −11 |  |
| COC(=O)C1(CCCCN2CCC(=C3c4ccccc4C=Cc4ccccc43)CC2)CCCCC1.Cl [Example 219, 1-(4-(4-(5H-Dibenzo[a,d]cyclohepten-5-ylidene)-1-piperidinyl)-butyl)-1-methoxycarbonylcyclohexane hydrochloride] | −104 | −33 |  |
| CCOC(=O)C(CCCN1CCC(=C2c3ccccc3C=Cc3ccccc32)CC1)C1CCCCC1.Cl (centres unmarked) [Example 220, Ethyl 2-cyclohexyl-5-(4-(5H-Dibenzo[a,d]cyclohepten-5-ylidene)-1-piperidinyl)valerate hydrochloride] | −148 | −54 |  |
| COc1ccc(CCCCN2CCC(=C3c4ccccc4C=Cc4ccccc43)CC2)cc1OC.Cl [Example 221, 4-(5H-Dibenzo[a,d]cyclohepten-5-ylidene)-1-(4-(3′,4′-dimethoxyphenyl)butyl)piperidine hydrochloride] | −70 | −13 |  |
| COc1ccc(C2(CCCN3CCC(=C4c5ccccc5C=Cc5ccccc54)CC3)OCCO2)cc1OC.Cl [Example 222] | −94 | −5 |  |
| O=C(C1CCc2ccccc2C1)N1CCC(=C2c3ccccc3C=Cc3ccccc32)CC1 (centres unmarked) [Example 224, 4-(5H-Dibenzo[a,d]cyclohepten-5-ylidene)-1-(1,2,3,4-tetrahydro-2-naphthoyl)piperidine] | −69 | −61 |  |
| C1=Cc2ccccc2C(=C2CCN(CC3CCc4ccccc4C3)CC2)c2ccccc21 (centres unmarked) [Example 225, 4-(5H-Dibenzo[a,d]cyclohepten-5-ylidene)-1-(1,2,3,4-tetrahydro-2-naphthylmethyl)piperidine] | −115 | −31 |  |
| Cl.O=C(CCN1CCC(=C2c3ccccc3C=Cc3ccccc32)CC1)NC1CCCCC1 [Example 226, N-(3,(4-(5H-Dibenzo[a,d]cyclohepten-5-ylidene)-1-piperidinyl)propanoyl)cyclohexylamine hydrochloride] | −131 | −16 |  |
| C1=Cc2ccccc2C(=C2CCN(CCCCC3CCCCC3)CC2)c2ccccc21.Cl [Example 228] |  |  | Decrease in systolic blood pressure (mmHg) time after administration (hour) 0.5 (dose 3 mg/kg i.v. bolus): −112 mmHg; Decrease in systolic blood pressure (mmHg) time after administration (hour) 4 (dose 3 mg/kg i.v. bolus): −14 mmHg |
| COc1ccc(C(=O)CCCN2CCC(=C3c4ccccc4CSc4ccccc43)CC2)cc1OC.Cl [Example 229, 4-(4-(5H-Dibenzo[a,d]thiepin-5-ylidene)-1-piperidinyl)-3+,4+-dimethoxybutyrophenone hydrochloride] |  |  | Decrease in systolic blood pressure (mmHg) time after administration (hour) 0.5 (dose 3 mg/kg i.v. bolus): −77 mmHg; Decrease in systolic blood pressure (mmHg) time after administration (hour) 4 (dose 3 mg/kg i.v. bolus): −14 mmHg |
| Cl.O=[N+]([O-])c1ccccc1C=CCN1CCC(=C2c3ccccc3C=Cc3ccccc32)CC1 [Example 230, 4-(5H-Dibenzo[a,d]cyclohepten-5-ylidene)-1-(2-nitrocinnamyl)piperidine hydrochloride] |  |  | Decrease in systolic blood pressure (mmHg) time after administration (hour) 0.5 (dose 3 mg/kg i.v. bolus): −131 mmHg; Decrease in systolic blood pressure (mmHg) time after administration (hour) 4 (dose 3 mg/kg i.v. bolus): −91 mmHg |
| Cl.Nc1ccc(C=CCN2CCC(=C3c4ccccc4C=Cc4ccccc43)CC2)cc1 [Example 231, 1-(4-Aminocinnamyl)-4-(5H-dibenzo[a,d]cyclohepten-5-ylidene)piperidine hydrochloride] |  |  | Decrease in systolic blood pressure (mmHg) time after administration (hour) 0.5 (dose 3 mg/kg i.v. bolus): −132 mmHg; Decrease in systolic blood pressure (mmHg) time after administration (hour) 4 (dose 3 mg/kg i.v. bolus): −115 mmHg |
| CC(=O)Nc1ccc(C=CCN2CCC(=C3c4ccccc4C=Cc4ccccc43)CC2)cc1.Cl.Cl [Example 232, 1-(4-Acetylaminocinnamyl)-4-(5H-dibenzo[a,d]cyclohepten-5-ylidene)piperidine dihydrochloride] |  |  | Decrease in systolic blood pressure (mmHg) time after administration (hour) 0.5 (dose 1 mg/kg i.v. bolus): −92 mmHg; Decrease in systolic blood pressure (mmHg) time after administration (hour) 4 (dose 1 mg/kg i.v. bolus): −85 mmHg |
| Cl.O=C(CCCN1CCC(=C2c3ccccc3C=Cc3ccccc32)CC1)c1ccco1 [Example 233, 4-(4-(5H-Dibenzo[a,d]cyclohepten-5-ylidene)-1-piperidinyl)-1-(2-furyl)-1-butanone hydrochloride] | −35 | −1 |  |
